Experimental data: ChEMBL document CHEMBL1128927, “Synthesis and biological activities of [N-MeLeu5] didemnin B” (Bioorg Med Chem Lett, 1996)

Assays:
Assay type in all cases: functional
RXF 393 = assay: Compound was evaluated for cytotoxic activity against renal cancer RXF-393 cell lines.; settings: Homo sapiens, read-out: LC50 (the source's name)
A549 = assay: Compound was evaluated for cytotoxic activity against non-small lung cancer A549/ATCC cell lines.; settings: Homo sapiens, read-out: LC50 (the source's name)
SK-MEL-5 = assay: Compound was evaluated for cytotoxic activity against melanoma Sk-MEL-5 cell lines.; settings: Homo sapiens, read-out: LC50 (the source's name)
SNB-75 = assay: Compound was evaluated for cytotoxic activity against CNS cancer SNB-75 cell lines.; settings: Homo sapiens, read-out: LC50 (the source's name)
HT-29 = assay: Compound was evaluated for cytotoxic activity against colon cancer HT-29 cell lines.; settings: Homo sapiens, read-out: LC50 (the source's name)
Oryctolagus cuniculus = organism: Oryctolagus cuniculus; assay: In vitro inhibition of protein synthesis in rabbit reticulocyte lysates.

Row | Structure (SMILES) | CC50 (RXF 393) [nM] | CC50 (A549) [µM] | CC50 (SK-MEL-5) [nM] | CC50 (SNB-75) [nM] | CC50 (HT-29) [nM] | IC50 (Oryctolagus cuniculus) [µM]
1 | CC[C@H](C)[C@H]1NC(=O)[C@@H](NC(=O)[C@@H](CC(C)C)N(C)C(=O)[C@@H]2CCCN2C(=O)[C@H](C)O)[C@@H](C)OC(=O)[C@H](CC(C)C)N(C)C(=O)[C@@H]2CCCN2C(=O)[C@H](CC(C)C)NC(=O)[C@@H](C)C(=O)[C@H](C(C)C)OC(=O)C[C@@H]1O [listing 1 of 2 here] | 258 | > 25 | 79.9 | 399 | 445 | –
2 | CC[C@H](C)[C@H]1NC(=O)[C@@H](NC(=O)[C@@H](CC(C)C)N(C)C(=O)[C@@H]2CCCN2C(=O)[C@H](C)O)[C@@H](C)OC(=O)[C@H](CC(C)C)N(C)C(=O)[C@@H]2CCCN2C(=O)[C@H](CC(C)C)NC(=O)[C@@H](C)C(=O)[C@H](C(C)C)OC(=O)C[C@@H]1O [listing 2 of 2 here] | – | – | – | – | – | 9
